Literature values, collected in patent publication US20070042005A1, “Pharmaceutical composition comprising fungal cell or fragment thereof” (priority 2003, published 2007).
Each block holds one molecule with its values, some of them ahead of it.

What was measured:
[1] = in animals; owing to poor intestinal permeability
[2] = rats

oral bioavailability [1]: < 5%
Structure (SMILES): CO[C@@]1(NC(=O)Cc2cccs2)C(=O)N2C(C(=O)O)=C(COC(N)=O)CS[C@@H]21 [cefoxitin]

oral absorption: poorly absorbed orally
Structure (SMILES): C[C@H](N[C@@H](CCc1ccccc1)C(=O)O)C(=O)N1CCC[C@H]1C(=O)O [Enalaprilat]

Structure (SMILES): CCCCCCCCCCCCCCCC(=O)OC(CC(=O)[O-])C[N+](C)(C)C (stereo not drawn) [Palmitoyl carnitine]
effect on bioavailability of cefoxitin [2]: increase the bioavailability of cefoxitin
